The values below come from PubChem BioAssay (NCI).

Structures are written as SMILES. Values joined by “and” are separate entries in the source; they are usually repeats but may differ in a detail not shown here. Equal values may be shown once.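 Five concentrations, 48 hours, 96-well plates. Here, GI50 denotes the concentration required for 50% inhibition of growth. At the TGI there is no net growth.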 Bounds are passed on as bounds.

Test systems include HCC-2998 colon; MALME-3M melanoma; RPMI-8226 leukemia; SF-268 CNS; SNB-78 CNS; SR leukemia; DMS 114 small cell lung; KM12 colon; CAKI-1 renal; MCF7 breast.
Assay in all cases: NCI tumour cell line growth inhibition, 48 h

`COc1cc(Nc2cnc3cc(C(F)(F)F)ccc3n2)cc(OC)c1OC`: the TGI with HCC-2998 colon, in the assay on MALME-3M melanoma, in the assay on RPMI-8226 leukemia, in the assay with SF-268 CNS, in the assay with SNB-78 CNS and in the assay on SR leukemia was more than 100 µM in each case.
`CCCc1c2c([nH]c(=O)c1C)C(=O)c1[nH]c(=O)c(C)c(CCC)c1C2=O`: the TGI in the assay on DMS 114 small cell lung is 16.4 µM; in the assay on HCC-2998 colon, more than 100 µM; with MALME-3M melanoma, 22.2 µM; in the assay with SF-268 CNS it was 87.4 µM; in the assay with SNB-78 CNS, more than 100 µM; in the assay with SR leukemia, 42.2 µM.
With `CCCCCCCCCCCCCS(=O)(=O)O`, the TGI with DMS 114 small cell lung, in the assay on HCC-2998 colon, in the assay with KM12 colon, in the assay with MALME-3M melanoma, with SF-268 CNS and with SNB-78 CNS was more than 100 µM throughout.
In the case of `O=C(O)c1ccc(NC(=O)C2C(=O)C(=O)N(c3ccc(C(=O)O)cc3)C2=O)cc1` (stereo not drawn), the TGI in the assay with CAKI-1 renal, in the assay with HCC-2998 colon, in the assay with KM12 colon, with MALME-3M melanoma, in the assay on RPMI-8226 leukemia and in the assay with SF-268 CNS was more than 100 µM in each case. The same molecule yielded a TGI with SNB-78 CNS of more than 100 µM.
As for `CCN(CC)CCCN(c1cc(OC)cc2nccnc12)S(=O)(=O)c1ccc(C)cc1`, the TGI in the assay with CAKI-1 renal, in the assay with DMS 114 small cell lung, in the assay on HCC-2998 colon, in the assay on KM12 colon, in the assay with MALME-3M melanoma and with RPMI-8226 leukemia was more than 100 µM each time. Moreover, the TGI in the assay with SF-268 CNS and with SR leukemia was more than 100 µM each time.
As to `C/C(=N\NC(=S)N1CCCCCC1)c1nccnc1C`, the TGI is more than 100 µM with CAKI-1 renal; 0.0275 µM with DMS 114 small cell lung; more than 100 µM in the assay on HCC-2998 colon; more than 100 µM in the assay with KM12 colon; more than 100 µM in the assay with MALME-3M melanoma; more than 100 µM with RPMI-8226 leukemia. For the same molecule, the TGI in the assay with SF-268 CNS and with SNB-78 CNS was more than 100 µM in each case.
Regarding `COc1nc2c(OC)cccc2c(OC)c1C=O`, the TGI in the assay on DMS 114 small cell lung, with KM12 colon, with MALME-3M melanoma and in the assay on RPMI-8226 leukemia was more than 100 µM each time.
For `CC(C)C(C(=O)O)N(CC1(O)OCC(O)C(O)C1O)N=O` (stereo not drawn), the TGI in the assay with DMS 114 small cell lung, in the assay with HCC-2998 colon, with KM12 colon, in the assay on MALME-3M melanoma, with RPMI-8226 leukemia and in the assay on SNB-78 CNS was more than 100 µM in each case.
Turning to `COc1cccc(N2C(=O)c3c(c4[nH]c5ccccc5c4c4ccc(C(C)(C)C)cc34)C2=O)c1`, the TGI in the assay on CAKI-1 renal, in the assay with DMS 114 small cell lung, in the assay on HCC-2998 colon, in the assay on KM12 colon, with MALME-3M melanoma and with SF-268 CNS was more than 100 µM each time. Further, the TGI with SNB-78 CNS and with SR leukemia was more than 100 µM each time.
For the molecule `Cc1ccc(S(=O)(=O)N/N=C(\CCN2CCCC2)CC(c2ccccc2)c2c(O)c3ccccc3oc2=O)cc1` (stereo not drawn), the TGI in the assay on CAKI-1 renal, in the assay with KM12 colon, with MALME-3M melanoma, in the assay with RPMI-8226 leukemia, in the assay with SF-268 CNS and in the assay on SNB-78 CNS was more than 100 µM in each case. The molecule further registered a TGI in the assay with SR leukemia of more than 100 µM.
Consider `C/C(=N\N=C(N)N)C(CN(CC(C)C)CC(C)C)C(=O)Nc1ccc(C)cc1C` (stereo not drawn), for which the TGI in the assay on CAKI-1 renal, in the assay on DMS 114 small cell lung, with HCC-2998 colon, in the assay with KM12 colon, in the assay on MALME-3M melanoma and in the assay with SF-268 CNS was more than 100 µM in each case. Further, the TGI with SNB-78 CNS and in the assay on SR leukemia was more than 100 µM each time.
Take `O=C1NC(=O)C(C(=O)C(=O)Nc2ccc(Br)cc2)C(=O)N1`: the TGI with DMS 114 small cell lung, in the assay with HCC-2998 colon, with MALME-3M melanoma, with RPMI-8226 leukemia, in the assay with SF-268 CNS and in the assay on SNB-78 CNS was more than 100 µM each time. This molecule also gave a TGI in the assay on SR leukemia of more than 100 µM.
As to `CC1=CC=NN2C(=O)[C@H](C)C2C1` (stereo partly drawn), the TGI with DMS 114 small cell lung, in the assay with HCC-2998 colon, in the assay with KM12 colon, in the assay with MALME-3M melanoma, in the assay with RPMI-8226 leukemia and in the assay on SF-268 CNS was more than 100 µM each time. Further, the TGI with SNB-78 CNS and with SR leukemia was more than 100 µM each time.
Turning to `Cn1ncc(=S)[nH]c1=S`, the TGI in the assay on DMS 114 small cell lung, in the assay on MALME-3M melanoma, in the assay on RPMI-8226 leukemia, in the assay on SF-268 CNS and with SNB-78 CNS was more than 100 µM each time.
In the case of `CC(Cn1c2c3ccccc3ccc2c2oc(=O)c3ccccc3c21)N(C)C` (stereo not drawn), the TGI with CAKI-1 renal, in the assay with DMS 114 small cell lung, in the assay with KM12 colon, in the assay with MALME-3M melanoma, with RPMI-8226 leukemia and in the assay on SF-268 CNS was more than 100 µM in each case. For the same molecule, the TGI in the assay with SNB-78 CNS and with SR leukemia was more than 100 µM each time.
As for `COC(=O)c1c[nH]cc1CCc1c[nH]cc1C(=O)OC`, the TGI in the assay with CAKI-1 renal, with HCC-2998 colon, in the assay with KM12 colon, with MALME-3M melanoma, in the assay with SF-268 CNS and in the assay on SNB-78 CNS was more than 100 µM each time. In the assay on SR leukemia, this molecule had a TGI of more than 100 µM.
For the molecule `O=C(Cc1nc2ccccc2s1)C(=O)Nc1ccc(Cl)cc1`, the TGI with CAKI-1 renal, in the assay with DMS 114 small cell lung, in the assay on HCC-2998 colon, in the assay on KM12 colon, with MALME-3M melanoma and in the assay on RPMI-8226 leukemia was more than 100 µM throughout. In addition, the TGI in the assay on SF-268 CNS and in the assay on SNB-78 CNS was more than 100 µM each time.
Turning to `COc1ccc(OCC(=O)O)c2c1CCC(C(C)C)C2=O` (stereo not drawn), the TGI in the assay on CAKI-1 renal, in the assay on DMS 114 small cell lung, in the assay on HCC-2998 colon, with KM12 colon, with MALME-3M melanoma and in the assay on RPMI-8226 leukemia was more than 100 µM throughout. In addition, the TGI in the assay on SNB-78 CNS was more than 100 µM.
As to `COc1ccc(C(=O)/C=C/c2ccc(O)c(O)c2F)c(OC)c1`, the GI50 is 5.73 µM with CAKI-1 renal; 3.41 µM in the assay on HCC-2998 colon; 12 µM in the assay on MALME-3M melanoma; 0.334 µM in the assay with MCF7 breast; 0.923 µM with RPMI-8226 leukemia; 8.75 µM in the assay with SF-268 CNS. The GI50 in the assay on SR leukemia is 0.072 µM. Further, the TGI was 75 µM and 44.9 µM with CAKI-1 renal; 12.2 µM and 12.3 µM in the assay on HCC-2998 colon; 27.8 µM and 23.9 µM in the assay on KM12 colon; 22.6 µM and 25.2 µM in the assay on MALME-3M melanoma; 9.83 µM and 13.1 µM in the assay with MCF7 breast; 31 µM and 8.25 µM in the assay with RPMI-8226 leukemia. Besides, in the assay on SF-268 CNS, the TGI is 75 µM and 59.1 µM.
